Experiment: Modified Recombinant Enzyme Assay: Glutaminase reaction buffer was prepared [50 mM Tris-HCl pH 8.8, 150 mM K2HPO4, […] EDTA, 0.1 mg/ml BSA (Calbiochem no. 2960), 1 mM DTT, 2 mM NADP+(Sigma Aldrich no. N5755), and 0.01% TX-100] and used to make 3×-enzyme-containing solution, 3×-substrate-containing solution, and 3×-inhibitor-containing solution (see below) Inhibitor-containing solution was made

| Compound | IC50 [nM] |
| --- | --- |
| Cc1cccc(CC(=O)Nc2nnc(CCCCc3ccc(NC(=O)Cc4cccc(OC(F)(F)F)c4)nn3)s2)n1 | 12 |
| O=C(Cc1cc(OC(F)(F)F)ccc1F)Nc1ccc(CCCCc2nnc(NC(=O)Cc3ccccn3)s2)nn1 | 20 |
| O=C(Cc1cc(O)cc(OC(F)(F)F)c1)Nc1ccc(CCCCc2nnc(NC(=O)Cc3ccccn3)s2)nn1 | 13 |
| COc1cc(CC(=O)Nc2ccc(CCCCc3nnc(NC(=O)Cc4ccccn4)s3)nn2)cc(OC(F)(F)F)c1 | 16 |
| O=C(Cc1ccc(F)c(OC(F)(F)F)c1)Nc1ccc(CCCCc2nnc(NC(=O)Cc3ccccn3)s2)nn1 | 33 |
| O=C(Cc1cc(OC(F)(F)F)ccc1O)Nc1ccc(CCCCc2nnc(NC(=O)Cc3ccccn3)s2)nn1 | 26 |

More lines, in order of falling IC50, values ahead:

| IC50 [nM] | Compound |
| --- | --- |
| 190 | O=C(Cc1ccccn1)Nc1nnc(CCCCc2ccc(NC(=O)C(O)c3ccccc3)nn2)s1 (stereo not drawn) |
| 140 | CC(C)(C)OC(=O)Nc1cccc(CC(=O)Nc2nnc(CCCCc3ccc(NC(=O)Cc4cccc(OC(F)(F)F)c4)nn3)s2)n1 |
| 50 | Nc1cccc(CC(=O)Nc2nnc(CCCCc3ccc(NC(=O)Cc4cccc(OC(F)(F)F)c4)nn3)s2)n1 |
| 42 | O=C(Cc1ccc(O)c(OC(F)(F)F)c1)Nc1ccc(CCCCc2nnc(NC(=O)Cc3ccccn3)s2)nn1 |
| 34 | COc1ccc(OC(F)(F)F)cc1CC(=O)Nc1ccc(CCCCc2nnc(NC(=O)Cc3ccccn3)s2)nn1 |
| 24 | COc1ccc(CC(=O)Nc2ccc(CCCCc3nnc(NC(=O)Cc4ccccn4)s3)nn2)cc1OC(F)(F)F |
| 16 | O=C(Cc1ccc(Cl)c(OC(F)(F)F)c1)Nc1ccc(CCCCc2nnc(NC(=O)Cc3ccccn3)s2)nn1 |
